Experimental data taken from ChEMBL document CHEMBL1158597, “Investigation of Beckett-Casy model 2: synthesis of novel 15-16 nornaltrexone derivatives and their pharmacology” (Bioorg Med Chem Lett, 2010).

What was measured:
Mu-type opioid receptor = Mu-type opioid receptor (Cavia porcellus, UniProt P97266); assay: Displacement of [3H]DAMGO from mu opioid receptor in Hartley guinea pig forebrain by liquid scintillation counting
[1] = biological target: Kappa-type opioid receptor (Cavia porcellus, UniProt P41144); assay: Displacement of [3H][…] from kappa opioid receptor in Hartley guinea pig cerebellum by liquid scintillation counter; type: tissue-based
Kappa-type opioid receptor, sequence (P41144 whole entry): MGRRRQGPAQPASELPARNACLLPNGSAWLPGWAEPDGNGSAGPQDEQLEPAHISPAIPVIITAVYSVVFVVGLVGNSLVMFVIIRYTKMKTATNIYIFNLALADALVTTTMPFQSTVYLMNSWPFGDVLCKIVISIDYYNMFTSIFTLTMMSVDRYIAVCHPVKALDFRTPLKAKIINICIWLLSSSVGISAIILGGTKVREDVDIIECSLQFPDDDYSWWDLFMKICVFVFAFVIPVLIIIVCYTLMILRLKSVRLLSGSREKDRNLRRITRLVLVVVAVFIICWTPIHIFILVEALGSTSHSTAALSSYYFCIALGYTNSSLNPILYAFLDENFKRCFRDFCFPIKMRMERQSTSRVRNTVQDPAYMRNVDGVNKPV

[2] = Displacement of [3H]NTI from delta opioid receptor in Hartley guinea pig forebrain by liquid scintillation counter; set-up: species or system Cavia porcellus

Mu-type opioid receptor, sequence (P97266 whole entry): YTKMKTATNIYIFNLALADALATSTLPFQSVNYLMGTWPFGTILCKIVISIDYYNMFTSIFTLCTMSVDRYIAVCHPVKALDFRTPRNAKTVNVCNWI

Structure (SMILES) | Ki (Mu-type opioid receptor) [nM] | IC50 [1] [nM] | IC50 [2] [nM] | Ki [1] [nM] | Ki [2] [nM] | IC50 (Mu-type opioid receptor) [nM]
O=C1CC[C@@]23OCCN(CC4CC4)[C@@H]2Cc2ccc(O)c4c2[C@H]3[C@H]1O4 | 294 | > 1000 | > 1000 | – | – | –
CN(CC1CC1)[C@@H]1Cc2ccc(O)c3c2[C@H]2[C@@H](O3)C(=O)CC[C@]21O | 1.17 | – | – | 5.1 | 55.2 | –
CN(C)[C@@H]1Cc2ccc(O)c3c2[C@H]2[C@@H](O3)C(=O)CC[C@]21O | 8.95 | > 1000 | > 1000 | – | – | –
O=C1CC[C@@H]2[C@H]3c4c(ccc(O)c4O[C@@H]13)C[C@H]2NCC1CC1 | 30.3 | – | > 1000 | 32.2 | – | –
O=C1CC[C@]23OCCN4CC[C@@]25c2c(ccc(O)c2O[C@@H]15)C[C@@H]43 | 86 | – | > 1000 | 72.6 | – | –
O=C1CC[C@@]2(O)[C@H](NCC3CC3)Cc3ccc(O)c4c3[C@H]2[C@H]1O4 | 24.7 | – | > 1000 | 68.4 | – | –
CN[C@@H]1Cc2ccc(O)c3c2[C@@H]2[C@H]1CCC(=O)[C@@H]2O3 | 164 | > 1000 | > 1000 | – | – | –
CN(CC1CC1)[C@@H]1Cc2ccc(O)c3c2[C@@H]2[C@H]1CCC(=O)[C@@H]2O3 | 3.36 | – | – | 8.81 | 272 | –
CN1CCO[C@@]23CCC(=O)[C@@H]4Oc5c(O)ccc(c5[C@@H]42)C[C@@H]13 | – | > 1000 | > 1000 | – | – | > 1000
CN(C)[C@@H]1Cc2ccc(O)c3c2[C@@H]2[C@H]1CCC(=O)[C@@H]2O3 | 50.9 | > 1000 | > 1000 | – | – | –
CN[C@@H]1Cc2ccc(O)c3c2[C@H]2[C@@H](O3)C(=O)CC[C@@]12O | 118 | > 1000 | > 1000 | – | – | –
